The numbers were not newly measured in patent publication US11844783B2, “Formulations of bendamustine” (Eagle Pharmaceuticals, Inc., priority 2010, dated 2023), which cites them from elsewhere.

For the data set the following is noted: liquid form.

Consider `Cn1c(CCCC(=O)O)nc2cc(N(CCCl)CCCl)ccc21` [bendamustine, Bendamustine], for which the stability in water result is listed as “measured in hours”.
